According to patent publication US20240366644A1, “ANTI-INFLAMMATORY APPLICATION OF GINSENOSIDE RD” (priority 2022, published 2024):

Assays:
[1] = tested on: mice with acute lung injury; experiment: Inflammatory factors (ELISA) in lung tissue and alveolar lavage fluid of mice with LPS acute lung injury; assay type: in vivo, Balb/c mice; conditions: for IL-1β in alveolar lavage fluid / IL-1β in lung tissue / IL-6 in alveolar lavage fluid / IL-6 in lung tissue / IL-18 in alveolar lavage fluid / IL-18 in lung tissue / TNF-α in alveolar lavage fluid / TNF-α in lung tissue: 24 h after modeling
Description: Balb/c male mice, weighing 20-22 g, were randomly divided into five groups according to body weights, with eight mice in each group: a blank control group (propylene glycol-0.5% carboxymethylcellulose sodium), a model group (LPS, 15 mg/kg), a ginsenoside Rd low-dose group (10 mg/kg), a ginsenoside Rd high-dose group (20 mg/kg), and a Dexamethasone group (5 mg/kg). Mice in each group were intraperitoneally injected; after 1 h of administration, except for the blank control group, the mice in each group were intratracheally instilled with 20 μg of LPS for modeling; and the blank control group was intratracheally instilled with an equal volume of PBS.
After 1 h of administration, a mouse ALI model was established; each mouse was intraperitoneally injected with sodium pentobarbital at 30 mg/kg, anesthetized and fixed on an operating table dorsally; skin preparation was carried out on the neck; the skin was incised to expose the trachea; 20 μg of LPS was instilled into the trachea using a microglass syringe; and then the mouse was gently rotated head up on the operating table, such that the instilled liquid was evenly distributed in the mouse lungs, and the skin incision was sutured.
After 24 h of modeling, anesthetized mice were intraperitoneally injected with sodium pentobarbital at 30 mg/kg; lung tissues of the mice were taken and rinsed repeatedly in pre-cooled normal saline; the lung tissues were blood-removed, wiped with filter paper, weighed, and added with normal saline according to a ratio of 1:9 (W:V=1 g:9 ml); a tissue homogenate was prepared with a homogenization machine under an ice water bath; and a supernatant of mouse lung tissue homogenate was taken.
The mouse was anesthetized, and the trachea was separated; the whole lung was lavaged with 0.5 ml of pre-cooled normal saline, stayed for 1 min, and slowly pumped back with a syringe, and this process was repeated three times; and BLAF was collected, and centrifuged for 15 min at 4° C. and 1600 rpm/min.
In strict accordance with the operating instructions of an enzyme-linked immunosorbent assay kit (ELISA), the contents of TNF-α, IL-1β, IL-6 and IL-18 in the supernatant of mouse lung tissue homogenate and the BLAF supernatant were detected.

[2] = tested on: influenza virus-infected mice; experiment: TNF-α and IL-6 in serum and lung tissues of influenza virus-infected mice; assay type: in vivo, ICR mice
Description: A lump of absorbent cotton was put into a beaker of 200-300 mL, and then poured with an appropriate amount of ether (till the absorbent cotton was wetted). The beaker filled with the absorbent cotton was inverted, and added with the mice for anesthesia. When the mice were extremely excited and then obviously weak, that is, the anesthesia depth was moderate, the mice were taken out. The ether-anesthetized mice were placed on their backs, with the mouse head facing upward, and then were subjected to intranasal infection. A diluted influenza virus was added to nostrils at 0.03 mL/nostril. A blank group was administrated with normal saline, instead of a virus suspension.
The mice were randomly divided into four groups, that is, drug groups (10 mg/kg, 5 mg/kg), a model group, and a blank group were administrated by routine gavage on the day before infection, once a day; and the blank group and the model group were perfused with the equal volume of normal saline.
On the Day 1, Day 3, Day 5 and Day 7 after influenza virus infection, venous blood was collected from the plexus ophthalmicus, and blood from mice in each group was preserved, subjected to serum separation, and stored in a refrigerator for later use.
According to the instructions of a test kit, various detection and analysis were carried out, and TNF-α and IL-6 concentrations were calculated based on the standard detection and standard curve plotting.
On the Day 1, Day 3, Day 5 and Day 7 after influenza virus infection, after the mice were killed by bleeding from the eyeballs, the whole lungs were picked, homogenized in a homogenizer according to a ratio of lung weight (g):normal saline (mL)=1:9, and centrifuged; and a supernatant was stored in the refrigerator for later use. According to the instructions of a test kit, various detection and analysis were carried out, and TNF-α and IL-6 concentrations were calculated based on the standard detection and standard curve plotting.

[3] = 10 mg/kg intraperitoneal 1 h before LPS
[4] = 20 mg/kg intraperitoneal 1 h before LPS
[5] = high-dose 10 mg/kg gavage once a day, 1 d after infection
[6] = high-dose 10 mg/kg gavage once a day, 3 d after infection
[7] = high-dose 10 mg/kg gavage once a day, 5 d after infection
[8] = high-dose 10 mg/kg gavage once a day, 7 d after infection
[9] = low-dose 5 mg/kg gavage once a day, 1 d after infection
[10] = low-dose 5 mg/kg gavage once a day, 3 d after infection
[11] = low-dose 5 mg/kg gavage once a day, 5 d after infection
[12] = low-dose 5 mg/kg gavage once a day, 7 d after infection

SMILES: CC(C)=CCC[C@](C)(O[C@@H]1O[C@H](CO)[C@@H](O)[C@H](O)[C@H]1O)[C@H]1CC[C@]2(C)[C@@H]1[C@H](O)C[C@@H]1[C@@]3(C)CC[C@H](O[C@@H]4O[C@H](CO)[C@@H](O)[C@H](O)[C@H]4O[C@@H]4O[C@H](CO)[C@@H](O)[C@H](O)[C@H]4O)C(C)(C)[C@@H]3CC[C@]12C [Ginsenoside Rd, ginsenoside Rd]
- IL-1β in alveolar lavage fluid [1, 3]: 79.63 ± 21.33 ng/L
- IL-1β in lung tissue [1, 3]: 80.23 ± 18.08 ng/L
- IL-6 in alveolar lavage fluid [1, 3]: 39.37 ± 9.12 ng/L
- IL-6 in lung tissue [1, 3]: 84.70 ± 10.84 ng/L
- IL-18 in alveolar lavage fluid [1, 3]: 81.20 ± 21.27 ng/L
- IL-18 in lung tissue [1, 3]: 94.03 ± 15.22 ng/L
- TNF-α in alveolar lavage fluid [1, 3]: 344.09 ± 61.08 ng/L
- TNF-α in lung tissue [1, 3]: 98.14 ± 14.48 ng/L
- IL-1β in alveolar lavage fluid [1, 4]: 49.51 ± 6.89 ng/L
- IL-1β in lung tissue [1, 4]: 30.52 ± 13.42 ng/L
- IL-6 in alveolar lavage fluid [1, 4]: 29.53 ± 8.99 ng/L
- IL-6 in lung tissue [1, 4]: 36.81 ± 13.45 ng/L
- IL-18 in alveolar lavage fluid [1, 4]: 44.64 ± 17.91 ng/L
- IL-18 in lung tissue [1, 4]: 37.54 ± 15.80 ng/L
- TNF-α in alveolar lavage fluid [1, 4]: 186.04 ± 75.00 ng/L
- TNF-α in lung tissue [1, 4]: 46.88 ± 19.52 ng/L
- contents of TNF-α, IL-1β, IL-6 and IL-18 in the lung tissues and BLAF ([1]; compared with the model group): significantly reduce
- effect on TNF-α, IL-1β, IL-6 and IL-18 contents compared with Dexamethasone ([1]; high-dose group 20 mg/kg, P<0.01): better than that of Dexamethasone
- Lung tissue IL-6 [2, 5]: 43.56 ± 3.46 pg/mL
- Lung tissue TNF-α [2, 5]: 31.34 ± 3.25 pg/mL
- Serum IL-6 [2, 5]: 46.21 ± 3.03 pg/mL
- Serum TNF-α [2, 5]: 26.53 ± 1.02 pg/mL
- Lung tissue IL-6 [2, 6]: 43.47 ± 2.58 pg/mL
- Lung tissue TNF-α [2, 6]: 32.09 ± 2.51 pg/mL
- Serum IL-6 [2, 6]: 46.52 ± 2.23 pg/mL
- Serum TNF-α [2, 6]: 26.83 ± 2.04 pg/mL
- Lung tissue IL-6 [2, 7]: 42.39 ± 3.41 pg/mL
- Lung tissue TNF-α [2, 7]: 31.97 ± 2.94 pg/mL
- Serum IL-6 [2, 7]: 45.79 ± 3.19 pg/mL
- Serum TNF-α [2, 7]: 26.99 ± 1.55 pg/mL
- Lung tissue IL-6 [2, 8]: 42.21 ± 2.64 pg/mL
- Lung tissue TNF-α [2, 8]: 30.08 ± 3.28 pg/mL
- Serum IL-6 [2, 8]: 45.23 ± 2.95 pg/mL
- Serum TNF-α [2, 8]: 25.88 ± 1.66 pg/mL
- Lung tissue IL-6 [2, 9]: 46.86 ± 2.76 pg/mL
- Lung tissue TNF-α [2, 9]: 32.98 ± 2.27 pg/mL
- Serum IL-6 [2, 9]: 47.15 ± 2.31 pg/mL
- Serum TNF-α [2, 9]: 28.32 ± 1.21 pg/mL
- Lung tissue IL-6 [2, 10]: 46.29 ± 2.05 pg/mL
- Lung tissue TNF-α [2, 10]: 34.72 ± 2.44 pg/mL
- Serum IL-6 [2, 10]: 47.22 ± 2.57 pg/mL
- Serum TNF-α [2, 10]: 28.19 ± 1.27 pg/mL
- Lung tissue IL-6 [2, 11]: 46.21 ± 2.73 pg/mL
- Lung tissue TNF-α [2, 11]: 32.14 ± 2.16 pg/mL
- Serum IL-6 [2, 11]: 46.62 ± 2.01 pg/mL
- Serum TNF-α [2, 11]: 28.07 ± 1.43 pg/mL
- Lung tissue IL-6 [2, 12]: 46.52 ± 3.02 pg/mL
- Lung tissue TNF-α [2, 12]: 30.86 ± 3.05 pg/mL
- Serum IL-6 [2, 12]: 46.59 ± 3.46 pg/mL
- Serum TNF-α [2, 12]: 27.94 ± 1.16 pg/mL
- inflammatory factors TNF-α and IL-6 after influenza virus infection ([2]; mouse, in vivo): could down-regulate the related inflammatory factors
